Drawing on PubChem BioAssay AID2060342 (Molecular Pharmacology Branch, DTP, NCI, 2025), this text covers IC50 and viability, T/C for 5 molecules.

SMILES strings stand for the structures. “And” between values parts separate entries of the source, which are not always exact repeats. Equal entries are not always repeated.

One may read the IC50 as the concentration that inhibits the measured activity by half. Broadly, the viability, T/C is the ratio of treated to control.

For this assay, the system named is 171881-019-R-J1-PDC multicell spheroid viability. Briefly: Anticancer human tumor 171881-019-R-J1-PDC patient-derived invasive breast carcinoma cell line growth inhibition [IpAb]. The note with it: for viability, T/C: stronger effect = lower value. Put shortly: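 Combinations with ipatasertib or abemaciclib were tested on tumour spheroids holding HUVEC (25%) and MSC (15%) alongside 60% malignant cells. Top concentration was at or near clinical Cmax (10 microM if undefined), descending in half-log steps.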

Where [1] appears, read: curve of first compound, second compound 0.1 µM.
[2] abbreviates: curve of first compound, second compound 0.316 µM.
The mark [3] stands for this setting: curve of first compound, second compound 1 µM.
[4] abbreviates: second compound 0.1 µM, first compound 0.0316 µM.
The mark [5] stands for this setting: second compound 0.1 µM, first compound 0.1 µM.
[6] abbreviates: second compound 0.1 µM, first compound 0.316 µM.
[7] abbreviates: second compound 0.1 µM, first compound 1 µM.
[8] abbreviates: second compound 0.1 µM, first compound 3.16 µM.
Setting [9] is: second compound 0.1 µM, first compound 10 µM.
Where [10] appears, read: second compound 0.316 µM, first compound 0.0316 µM.
[11] abbreviates: second compound 0.316 µM, first compound 0.1 µM.
Where [12] appears, read: second compound 0.316 µM, first compound 0.316 µM.
[13] abbreviates: second compound 0.316 µM, first compound 1 µM.
Setting [14] is: second compound 0.316 µM, first compound 3.16 µM.
Setting [15] is: second compound 0.316 µM, first compound 10 µM.
The mark [16] stands for this setting: second compound 1 µM, first compound 0.0316 µM.
[17] abbreviates: second compound 1 µM, first compound 0.1 µM.
The mark [18] stands for this setting: second compound 1 µM, first compound 0.316 µM.
The mark [19] stands for this setting: second compound 1 µM, first compound 1 µM.
Setting [20] is: second compound 1 µM, first compound 3.16 µM.
The mark [21] stands for this setting: second compound 1 µM, first compound 10 µM.
Where [22] appears, read: curve of first compound, second compound 0.01 µM.
Setting [23] is: curve of first compound, second compound 0.0316 µM.
The mark [24] stands for this setting: second compound 0.01 µM, first compound 0.0316 µM.
Setting [25] is: second compound 0.01 µM, first compound 0.1 µM.
[26] abbreviates: second compound 0.0316 µM, first compound 0.0316 µM.
The mark [27] stands for this setting: second compound 0.0316 µM, first compound 0.1 µM.
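Also: spheroids exposed to the agents for seven days before readout.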

As for `C=CCn1c(=O)c2cnc(Nc3ccc(N4CCN(C)CC4)cc3)nc2n1-c1cccc(C(C)(C)O)n1` + CC(C)NCC(C(=O)N1CCN(c2ncnc3c2C(C)CC3O)CC1)c1ccc(Cl)cc1, the IC50 under setting [1] amounted to 0.727 µM; the IC50 under setting [2] is 0.354 µM; the IC50 under setting [3] is less than 0.0316 µM; the IC50 (curve of first compound, second compound 3.16 µM) is less than 0.0316 µM; the IC50 (curve of first compound, second compound 10 µM) is less than 0.0316 µM. Further, the viability, T/C is, setting by setting: under setting [4], 116%; under setting [5], 118%; under setting [6], 114%; under setting [7], 25.6%; under setting [8], 22.1%; under setting [9], 20.3%. The viability, T/C is 87.3% under setting [10]; 80.3% under setting [11]; 54% under setting [12]; 17.4% under setting [13]; 15.6% under setting [14]; 16.4% under setting [15]. The viability, T/C under setting [16] was 26.4%; the viability, T/C under setting [17] is 23.8%; the viability, T/C under setting [18] was 16.5%; the viability, T/C under setting [19] was 9.22%; the viability, T/C under setting [20] is 10.4%; the viability, T/C under setting [21] was 10.4%. The viability, T/C is 9.36% (second compound 3.16 µM, first compound 0.0316 µM); 8.13% (second compound 3.16 µM, first compound 0.1 µM); 6.23% (second compound 3.16 µM, first compound 0.316 µM); 5.35% (second compound 3.16 µM, first compound 1 µM); 7.31% (second compound 3.16 µM, first compound 3.16 µM); 8.03% (second compound 3.16 µM, first compound 10 µM). Besides, the viability, T/C (second compound 10 µM, first compound 0.0316 µM) is 5.29%; the viability, T/C (second compound 10 µM, first compound 0.1 µM) is 4.04%; the viability, T/C (second compound 10 µM, first compound 0.316 µM) is 3.45%; the viability, T/C (second compound 10 µM, first compound 1 µM) was 4.09%; the viability, T/C (second compound 10 µM, first compound 3.16 µM) was 4.97%; the viability, T/C (second compound 10 µM, first compound 10 µM) was 4.41%.
On to `Cn1ncnc1[C@H]1c2n[nH]c(=O)c3cc(F)cc(c23)N[C@@H]1c1ccc(F)cc1` + CCN1CCN(Cc2ccc(Nc3ncc(F)c(-c4cc(F)c5nc(C)n(C(C)C)c5c4)n3)nc2)CC1, for which the IC50 was greater than 0.1 µM under setting [22]; greater than 0.1 µM under setting [23]; greater than 0.1 µM under setting [1]; greater than 0.1 µM under setting [2]; greater than 0.1 µM under setting [3]. The viability, T/C (second compound 0.01 µM, first compound 0.000316 µM) was 88.2%; the viability, T/C (second compound 0.01 µM, first compound 0.001 µM) is 99.7%; the viability, T/C (second compound 0.01 µM, first compound 0.00316 µM) is 86.9%; the viability, T/C (second compound 0.01 µM, first compound 0.01 µM) is 102%; the viability, T/C under setting [24] is 95.5%; the viability, T/C under setting [25] is 109%. Also, the viability, T/C runs as follows: (second compound 0.0316 µM, first compound 0.000316 µM) 109%; (second compound 0.0316 µM, first compound 0.001 µM) 96.2%; (second compound 0.0316 µM, first compound 0.00316 µM) 113%; (second compound 0.0316 µM, first compound 0.01 µM) 114%; under setting [26], 104%; under setting [27], 113%. Besides, the viability, T/C (second compound 0.1 µM, first compound 0.000316 µM) was 118%; the viability, T/C (second compound 0.1 µM, first compound 0.001 µM) was 118%; the viability, T/C (second compound 0.1 µM, first compound 0.00316 µM) was 115%; the viability, T/C (second compound 0.1 µM, first compound 0.01 µM) was 114%; the viability, T/C under setting [4] was 116%; the viability, T/C under setting [5] was 113%. The viability, T/C reads like this: (second compound 0.316 µM, first compound 0.000316 µM) 126%; (second compound 0.316 µM, first compound 0.001 µM) 132%; (second compound 0.316 µM, first compound 0.00316 µM) 124%; (second compound 0.316 µM, first compound 0.01 µM) 127%; under setting [10], 130%; under setting [11], 126%. For the same molecule, the viability, T/C was 143% (second compound 1 µM, first compound 0.000316 µM); 141% (second compound 1 µM, first compound 0.001 µM); 140% (second compound 1 µM, first compound 0.00316 µM); 135% (second compound 1 µM, first compound 0.01 µM); 137% under setting [16]; 138% under setting [17].
As for `Cn1nccc1Nc1nccc(-c2ccn(C(CO)c3ccc(Cl)c(F)c3)c(=O)c2)n1` (centres undefined) + CCN1CCN(Cc2ccc(Nc3ncc(F)c(-c4cc(F)c5nc(C)n(C(C)C)c5c4)n3)nc2)CC1, the IC50 under setting [22] worked out at 0.772 µM; the IC50 under setting [23] was determined as 0.81 µM; the IC50 under setting [1] came out at 0.929 µM; the IC50 under setting [2] is 1.14 µM; the IC50 under setting [3] turned out to be 2.97 µM. The viability, T/C is 117% under setting [24]; 112% under setting [25]; 79.5% (second compound 0.01 µM, first compound 0.316 µM); 41.6% (second compound 0.01 µM, first compound 1 µM); 24.5% (second compound 0.01 µM, first compound 3.16 µM); 18.5% (second compound 0.01 µM, first compound 10 µM). Besides, the viability, T/C runs as follows: under setting [26], 132%; under setting [27], 122%; (second compound 0.0316 µM, first compound 0.316 µM) 80.6%; (second compound 0.0316 µM, first compound 1 µM) 43.2%; (second compound 0.0316 µM, first compound 3.16 µM) 29.2%; (second compound 0.0316 µM, first compound 10 µM) 19.7%. In addition, the viability, T/C under setting [4] is 138%; the viability, T/C under setting [5] is 113%; the viability, T/C under setting [6] was 78.5%; the viability, T/C under setting [7] was 47.4%; the viability, T/C under setting [8] was 31.2%; the viability, T/C under setting [9] is 20.9%. Further, the viability, T/C reads like this: under setting [10], 144%; under setting [11], 122%; under setting [12], 79.3%; under setting [13], 52.2%; under setting [14], 38.8%; under setting [15], 26.5%. For the same molecule, the viability, T/C under setting [16] is 161%; the viability, T/C under setting [17] is 129%; the viability, T/C under setting [18] was 87.5%; the viability, T/C under setting [19] was 61.5%; the viability, T/C under setting [20] is 46.5%; the viability, T/C under setting [21] is 32.7%.
As for `Cc1nc(NC(=O)N2CCCC2C(N)=O)sc1-c1ccnc(C(C)(C)C(F)(F)F)c1` (centres undefined), the viability, T/C reads like this: (compound 0.0316 µM) 117% and 108%; (compound 0.1 µM) 128% and 98.1%; (compound 0.316 µM) 84.2% and 67.8%; (compound 1 µM) 36.8% and 38.8%; (compound 3.16 µM) 16.5% and 12.6%; (compound 10 µM) 2.78% and 1.93%. In addition, the IC50 (curve of compound) is 0.734 µM and 0.64 µM.
Turning to `CC(C)n1nc(-c2ccc3oc(N)nc3c2)c2c(N)ncnc21`, the viability, T/C is, setting by setting: (compound 0.000316 µM) 109% and 103%; (compound 0.001 µM) 114% and 106%; (compound 0.00316 µM) 82.1% and 64%; (compound 0.01 µM) 28.1% and 18.6%; (compound 0.0316 µM) 4.54% and 3.87%; (compound 0.1 µM) 2.72% and 2.73%. The IC50 (curve of compound) is 0.00627 µM and 0.00458 µM.
